Results taken from patent US9744156B2, “Methods and compositions for enhanced transungual delivery of AR-12” (Arno Therapeutics, Inc., priority 2015, dated 2017).
Where two headings read alike, the source gives them in different places.

Legend:
[1] = In vitro permeation across cadaver nail plate in modified Franz diffusion cell; assay type: in vitro ADME, human
Experimental: The permeation study was performed in Franz diffusion cells fitted with nail adapter. The finger nails (from all fingers except the little finger) of human cadavers obtained from ScienceCare were used for the transport studies. The nail plates were cleaned with water, and nail plates of 400-450 micron thickness were selected and visually inspected for presence of any cracks or pores. After mounting on the diffusion cell, the donor as well as the receiver compartments were filled with phosphate buffered saline […] and allowed to equilibrate for 3 hours for complete hydration of the nail plate. The electrical resistivity across the nail plate was measured prior to removal of the buffer to check the intactness of the nail plate after hydration.
The permeation testing was performed using modified Franz diffusion cell. The cell consisted of two compartments: a (1) a donor compartment for placing the drug solution/formulation and (2) a receiver compartment containing the buffer in which the drug diffuses. A nail holder is placed between the two compartments. The nail holder is curved to accommodate the contour of nail plate and secures the nail between the upper and lower part of the holder.
The donor compartment was filled with 500 microliters of drug solution (50 mg/ml) prepared in ethyl alcohol. For the control sample, no enhancer was incorporated. In the test cells, the enhancer was incorporated (5% PEG or 5% dexpanthenol or both). The donor compartment was covered with parafilm to minimize the loss of solvent. The drug solution was removed every 2 hours, the donor compartment was washed two times with 500 microliters of alcohol, and fresh drug solution (50 mg/ml) was placed in the donor compartment. […] The receiver compartment fluid was sampled at predetermined time points (e.g., 0, 12, 24, 36, 48, 60, 72, 84, 96, 108, 120, 132, 144, 156, 192, 204, […]) and the amount of drug permeated across the nail plate was quantitated by high pressure liquid chromatography.

[2] = 5% enhancer in 5% w/v AR-12 solution in ethanol, 24 h; FIG. 1

Question: With `NCC(=O)Nc1ccc(-n2nc(C(F)(F)F)cc2-c2ccc3c(ccc4ccccc43)c2)cc1` [AR-12, 2-amino-N-(4-(5-(phenanthren-2-yl)-3-(trifluoromethyl)-1H-pyrazol-1-yl)phenyl)acetamide] as the molecule, how does the “amount of drug permeated in a one week period across the nail plate” value ([1]; control, no enhancer, drug solution 50 mg/ml in ethyl alcohol, one week) read?
Answer: 658 ± 306 ng

Question: With `CC(C)(CO)[C@@H](O)C(=O)NCCCO` [dexpanthenol] as the molecule, how does the “suitability as enhancer for trans-ungual delivery of AR-12 (AR-12 accumulated in nail plate)” value [2] read?
Answer: preferred enhancers

Question: What about the “enhancement of permeation flux of AR-12 across the nail plate” value ([1]; 5% enhancer in AR-12 solution (50 mg/ml in ethyl alcohol) versus control without enhancer, one week, FIG. 2) of the same molecule?
Answer: four fold

Question: Which “enhancement of permeation flux of AR-12 across the nail plate” value [1] does the source give for polyethylene glycol 400 [PEG-400] here?
Answer: about six fold
